According to patent US20230348564A1, “ANTI-CANCER PROTEINS” (UNICHEM LABORATORIES LTD, priority 2020, published 2023):

Experiments:
[1] = system: VEGF release in PANC-1 cells; test: VEGF secretion in cancer cells (Human VEGF ELISA); format: cell-based; conditions: 24 h
Protocol: (§1) The cell lines were maintained in DMEM+10% […] (heat inactivated) at 37° C. with 5% CO2, and 95% humidity. Cells were counted and plated in 6-well plates for 24 h at a density of 0.5×10^6 cells/well. The cells were incubated overnight under growth conditions as described above so as to allow cell recovery and exponential growth. Cells were treated with each test item at different concentrations for 24h in serum free media. Doxorubicin was used as positive control. Secreted levels of VEGF were determined in supernatants after 24 hours using Human VEGF ELISA kit (R&D systems) as per manufacturer's protocol. Change in VEGF levels corresponding to each treatment was calculated using the following formula: […]

[2] = system: VEGF release in MDA-MB-231 cells; test: VEGF secretion in cancer cells (Human VEGF ELISA); format: cell-based; conditions: 24 h
Protocol: as §1

[3] = system: Glioblastoma (LN-18); test: cytotoxicity in Brain Tumor Cell lines by MTT assay; format: cell-based, Human; conditions: 0.1 Mm-100 μM, 72 h
Protocol: (§2) The SEQ ID NO. […] Untreated cells were used as control. […] Cells were incubated for 3 h at 37° C.

[4] = system: Neuroblastoma (SH-SY5Y); test: as above; format: cell-based, Human; conditions: 0.1 Mm-100 μM, 72 h
Protocol: as §2

[5] = system: MDA-MB-231; test: JC-1 assay, mitochondrial membrane depolarization; format: cell-based, Human; conditions: 16h
Protocol: (§3) To evaluate the in vitro apoptotic effect of recombinant lectin having the amino acid sequence of SEQ ID NO.2 in MDA-MB-231 (breast cancer) and PANG-1 (pancreatic cancer) cell line by JC-1 assay, an increase in mitochondrial membrane depolarization was used as a marker of apoptosis. […] 2 using JC-1 dye based method. […] The cell lines were grown in Dulbecco's Modified Eagle Medium (DMEM)+10% heat inactivated FBS at 37° C. (95% humidity and 5% CO2). […] Recombinant lectin having the amino acid sequence of SEQ ID NO. 2 was diluted in serum free medium. Doxorubicin was used as positive control and stock solution was prepared in dimethyl sulfoxide (DMSO). […] The cells were then incubated overnight under growth conditions to allow the cell recovery and exponential growth. Cells were treated with the recombinant lectin of SEQ ID NO. […] Following respective treatments the cells in the above plate were incubated for 16h in CO2 incubator at 37° C., 5% CO2 and 95% humidity.
(§4) After 16h of incubation, the supernatants were discarded and 100 μL of JC1-dye solution (prepared by diluting 1 mM DMSO stock in to 10 μM in 1×PBS) was added to each well. The cells were then incubated with the dye in CO2 incubator at 37° C. for 15 min. After 15 min of incubation, the supernatant was removed and the cells were washed twice with 1×PBS and then 100 μL of 1×PBS was added to each well. Red fluorescence (excitation 550 nm, emission 600 nm) and green fluorescence (excitation 485 nm, emission 535 nm) were measured using Biotek Synergy FIT plate reader. The mitochondrial membrane potential […] was calculated as the ratio of intensity of red fluorescence to intensity of green fluorescence described as follows:
(§5) ΔΨM=Intensity of red fluorescence/Intensity of green fluorescence
(§6) The percentage decrease of Red fluorescence/Green fluorescence corresponding to each treatment was calculated using the following formula:
(§7) Where X=Δψm corresponding to treated cells R=ΔΨM corresponding to control wells.

[6] = system: PANC-1; test: JC-1 assay, mitochondrial membrane depolarization; format: cell-based, Human; conditions: 16h
Protocol: as §3, §4, §5, §6, §7

[7] = system: THP-1 (Human acute monocytic leukemia); test: Calcein AM cytotoxicity assay; conditions: SEQ ID 2 80 μg/mL, doxorubicin 100 μM; 48h
Protocol: (§8) All the cancer cell lines were procured from National Centre for Cell Science, Pune (India). The cell lines were maintained under conditions as described in Table 21 below. The cell lines were sub-cultured by trypsinization followed by splitting the cell suspension into fresh flasks and supplementing with fresh culture medium.
(§9) All the cell lines were grown in specified media at 37° C. with 95% Humidity and […].
(§10) The cells were trypsinized, counted by Trypan blue method in Neuebauer's Chamber and plated in wells of flat bottom 96-well plate (dark walled plate, flat bottom) at the density corresponding to 10×10^3 cells/well/180 μl medium.
(§11) Following overnight incubation, the cells were treated with test item (20 μL) at concentrations ranging from 2.5-80 μg/mL, so that the total volume in each well is 200 μL.
(§12) The cells were incubated with the test items or positive control for a time period of 48h. Following incubation, the cell cytotoxicity was estimated using Calcein AM Cell Viability Assay Kit from R&D systems (Cat No. 4892-010-K).
(§13) Fluorescence was measured at 485 nm (excitation/528 run (emission) spectra using Synergy HT micro plate reader.
(§14) Percentage cytotoxicity wrt untreated cells was calculated using formula:
(§15) Cytotoxicity=[(RFUuntreated−RFUsample)/RFUuntreated]*100
(§16) RFU: relative fluorescence units
(§17) IC50 value was calculated using Graph-Pad Prism version 4.01 software.

[8] = system: A549 (Human lung carcinoma); test: Calcein AM cytotoxicity assay; conditions: SEQ ID 2 80 μg/mL, doxorubicin 100 μM; 48h
Protocol: as §8, §9, §10, §11, §12, §13, §14, §15, §16, §17

[9] = system: HT-29 (Human Colorectal adenocarcinoma); test: Calcein AM cytotoxicity assay; conditions: SEQ ID 2 80 μg/mL, doxorubicin 100 μM; 48h
Protocol: as §8, §9, §10, §11, §12, §13, §14, §15, §16, §17

[10] = system: AGS (Human stomach adenocarcinoma); test: Calcein AM cytotoxicity assay; conditions: SEQ ID 2 80 μg/mL, doxorubicin 100 μM; 48h
Protocol: as §8, §9, §10, §11, §12, §13, §14, §15, §16, §17

[11] = system: SiHa (Human cervix squamous cell carcinoma); test: Calcein AM cytotoxicity assay; conditions: SEQ ID 2 80 μg/mL, doxorubicin 100 μM; 48h
Protocol: as §8, §9, §10, §11, §12, §13, §14, §15, §16, §17

[12] = system: SK-Mel-28 (Human melanoma); test: Calcein AM cytotoxicity assay; conditions: SEQ ID 2 80 μg/mL, doxorubicin 100 μM; 48h
Protocol: as §8, §9, §10, §11, §12, §13, §14, §15, §16, §17

COc1cccc2c1C(=O)c1c(O)c3c(c(O)c1C2=O)C[C@@](O)(C(=O)CO)C[C@@H]3O[C@H]1C[C@H](N)[C@H](O)[C@H](C)O1 [Doxorubicin, reference compound]
Average absorbance at 450 nM ([1]; 10 μM): 0.506
Percentage decrease in VEGF levels ([1]; 10 μM): 73.6%
VEGF level ([1]; 10 μM): 269.7 pg/mL
Average absorbance at 450 nM ([1]; 100 μM): 0.483
Percentage decrease in VEGF levels ([1]; 100 μM): 75.1%
VEGF level ([1]; 100 μM): 254.6 pg/mL
Average absorbance at 450 nM ([2]; 10 μM): 0.176
Percentage decrease in VEGF levels ([2]; 10 μM): 89.2%
VEGF level ([2]; 10 μM): 49.9 pg/mL
Average absorbance at 450 nM ([2]; 100 μM): 0.145
Percentage decrease in VEGF levels ([2]; 100 μM): 93.7%
VEGF level ([2]; 100 μM): 29.0 pg/mL
% of cytotoxicity [3]: 6.5%-47.7%
% of cytotoxicity [4]: 21.7%-61.7%
Average Green fluorescence ([5]; 0.1 μM): 473.0
Average Red fluorescence ([5]; 0.1 μM): 465.3
Percentage decrease in MMP (%) ([5]; 0.1 μM): 58.8%
Average Green fluorescence ([5]; 1 μM): 345.5
Average Red fluorescence ([5]; 1 μM): 343.3
Percentage decrease in MMP (%) ([5]; 1 μM): 58.3%
Average Green fluorescence ([5]; 10 μM): 534.0
Average Red fluorescence ([5]; 10 μM): 580.7
Percentage decrease in MMP (%) ([5]; 10 μM): 54.4%
Average Green fluorescence ([5]; 25 μM): 336.3
Average Red fluorescence ([5]; 25 μM): 376.7
Percentage decrease in MMP (%) ([5]; 25 μM): 53.0%
Average Green fluorescence ([5]; 50 μM): 318.0
Average Red fluorescence ([5]; 50 μM): 663.7
Percentage decrease in MMP (%) ([5]; 50 μM): 12.5%
Average Green fluorescence ([6]; 0.1 μM): 258.5
Average Red fluorescence ([6]; 0.1 μM): 653.7
Percentage decrease in MMP (%) ([6]; 0.1 μM): −21.0%
Average Green fluorescence ([6]; 1 μM): 282.3
Average Red fluorescence ([6]; 1 μM): 555.3
Percentage decrease in MMP (%) ([6]; 1 μM): 5.9%
Average Green fluorescence ([6]; 10 μM): 208.3
Average Red fluorescence ([6]; 10 μM): 350.0
Percentage decrease in MMP (%) ([6]; 10 μM): 19.6%
Average Green fluorescence ([6]; 25 μM): 186.3
Average Red fluorescence ([6]; 25 μM): 283.0
Percentage decrease in MMP (%) ([6]; 25 μM): 27.3%
Average Green fluorescence ([6]; 50 μM): 161.7
Average Red fluorescence ([6]; 50 μM): 192.5
Percentage decrease in MMP (%) ([6]; 50 μM): 43.0%
Cytotoxicity at highest concentration tested [7]: 33.6%
Cytotoxicity at highest concentration tested [8]: 78.4%
Cytotoxicity at highest concentration tested [9]: 75.0%
Cytotoxicity at highest concentration tested [10]: 81.0%
Cytotoxicity at highest concentration tested [11]: 87.2%
Cytotoxicity at highest concentration tested [12]: 65.9%
